Assay results published in ChEMBL document CHEMBL1201862, “PubChem BioAssay data set” (2004).
Calls of active or inactive are those of the source.

What was measured:
[1] = target: Peroxisome proliferator-activated receptor gamma/Nuclear receptor corepressor 2 (Homo sapiens, UniProt P37231+Q9Y618); experiment: Counterscreen for NR2E3 inverse agonists: TR-FRET-based biochemical high throughput dose response assay to identify inverse agonists of the interaction between peroxisome proliferator-activated receptor gamma (PPARg) and nuclear receptor co-repressor 2 (NCOR2).; type: functional
[2] = target: Photoreceptor-specific nuclear receptor (Homo sapiens, UniProt Q9Y5X4); experiment: ligands suppressing NR2E3 nuclear receptor activity – biochemical, TR-FRET, dose response (AID 463256); type: functional
Cytochrome P450 2C19 = Cytochrome P450 2C19 (Homo sapiens, UniProt P33261); experiment: Cytochrome panel assay with activity outcomes. Panel member name: p450-cyp2c19 Compounds with AC50 equal or less than 10 uM are considered active; type: functional
Cytochrome P450 2C9 = Cytochrome P450 2C9 (Homo sapiens, UniProt P11712)
Cytochrome P450 2D6 = Cytochrome P450 2D6 (Homo sapiens, UniProt P10635);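 also: CYP2D6 member of a cytochrome P450 panel assay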
[3] = viability of PTEN-deleted HCT116 cells – cell-based, HCT116 PTEN knockout, dose response (AID 1047); type: functional;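 also: HCT116 colon tumor cells with PTEN knocked out; cells exposed to compound for 60 hours before readout; potency for loss of cell viability measured by luminescence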
[4] = viability of HCT116 lacking mutant beta-catenin – cell-based, human colon tumor, dose response (AID 1045); type: functional;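 also: HCT116 colon tumor cells with beta catenin knocked out; cells exposed to compound for 60 hours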
[5] = target: T1, Microphthalmia-associated transcription factor (Homo sapiens, UniProt O75030); experiment: reducers of TRPM1 reporter luminescence, concentration series – cell-based, SK-MEL-5, cherry-picked, set 3, MITF inhibitor project, dose response (AID 493073); type: functional;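 also: SK-MEL-5 melanoma cells with luciferase driven by the MITF target TRPM1 promoter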
T1 sequence (O75030 whole entry): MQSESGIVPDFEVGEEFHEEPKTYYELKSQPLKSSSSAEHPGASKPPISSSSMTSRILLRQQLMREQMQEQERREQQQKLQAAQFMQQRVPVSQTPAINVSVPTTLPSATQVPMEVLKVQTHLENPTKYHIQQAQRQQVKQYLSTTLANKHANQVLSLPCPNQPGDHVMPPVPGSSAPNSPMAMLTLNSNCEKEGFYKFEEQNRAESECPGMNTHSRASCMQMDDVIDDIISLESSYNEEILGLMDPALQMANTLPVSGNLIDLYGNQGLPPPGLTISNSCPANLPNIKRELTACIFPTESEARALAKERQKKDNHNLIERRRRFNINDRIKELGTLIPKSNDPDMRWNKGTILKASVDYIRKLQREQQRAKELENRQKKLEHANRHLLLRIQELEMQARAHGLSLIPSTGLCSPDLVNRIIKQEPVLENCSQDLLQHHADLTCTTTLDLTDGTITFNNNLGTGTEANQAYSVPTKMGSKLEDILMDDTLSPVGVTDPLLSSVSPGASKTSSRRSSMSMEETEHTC

[6] = target: T2, Replicative DNA helicase DnaB (Mycobacterium tuberculosis, UniProt P9WMR3); experiment: DnaB intein splicing inhibitors, dose response, biochemical, cell-free fluorescence (AID 449749); type: functional
T2 sequence (P9WMR3 whole entry): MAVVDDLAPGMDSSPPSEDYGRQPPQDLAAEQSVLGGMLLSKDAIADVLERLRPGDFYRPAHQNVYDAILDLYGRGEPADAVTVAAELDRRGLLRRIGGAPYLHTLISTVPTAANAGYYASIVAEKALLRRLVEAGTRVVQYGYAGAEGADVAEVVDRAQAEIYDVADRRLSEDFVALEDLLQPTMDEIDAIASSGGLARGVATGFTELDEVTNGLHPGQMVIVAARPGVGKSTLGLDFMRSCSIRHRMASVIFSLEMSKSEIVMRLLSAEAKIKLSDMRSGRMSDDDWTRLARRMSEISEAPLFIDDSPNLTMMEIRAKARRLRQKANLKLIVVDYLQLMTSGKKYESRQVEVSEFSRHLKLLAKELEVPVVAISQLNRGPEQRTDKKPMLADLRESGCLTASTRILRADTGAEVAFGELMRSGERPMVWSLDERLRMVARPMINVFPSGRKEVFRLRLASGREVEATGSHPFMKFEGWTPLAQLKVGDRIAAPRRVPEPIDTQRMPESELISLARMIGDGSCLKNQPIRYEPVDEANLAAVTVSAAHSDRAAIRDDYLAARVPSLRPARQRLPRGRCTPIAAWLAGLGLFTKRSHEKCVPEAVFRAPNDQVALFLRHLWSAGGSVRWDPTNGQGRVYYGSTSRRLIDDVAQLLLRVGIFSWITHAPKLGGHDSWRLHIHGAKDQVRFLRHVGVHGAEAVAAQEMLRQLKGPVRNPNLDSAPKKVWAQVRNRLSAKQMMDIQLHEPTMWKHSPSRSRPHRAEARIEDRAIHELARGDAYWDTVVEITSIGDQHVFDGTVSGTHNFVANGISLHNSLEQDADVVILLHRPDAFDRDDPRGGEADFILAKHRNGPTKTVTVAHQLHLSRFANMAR

Protein RecA = target: T3, Protein RecA (Mycobacterium tuberculosis, UniProt P9WHJ3); experiment: Fluorescence Cell-Free Homogeneous Dose Retest to Identify Inhibitors of RecA-Intein Splicing Activity. [Related pubchem assays (depositor defined):AID2097, AID2223, AID489010, AID492950]; type: functional
T3 sequence (P9WHJ3 whole entry): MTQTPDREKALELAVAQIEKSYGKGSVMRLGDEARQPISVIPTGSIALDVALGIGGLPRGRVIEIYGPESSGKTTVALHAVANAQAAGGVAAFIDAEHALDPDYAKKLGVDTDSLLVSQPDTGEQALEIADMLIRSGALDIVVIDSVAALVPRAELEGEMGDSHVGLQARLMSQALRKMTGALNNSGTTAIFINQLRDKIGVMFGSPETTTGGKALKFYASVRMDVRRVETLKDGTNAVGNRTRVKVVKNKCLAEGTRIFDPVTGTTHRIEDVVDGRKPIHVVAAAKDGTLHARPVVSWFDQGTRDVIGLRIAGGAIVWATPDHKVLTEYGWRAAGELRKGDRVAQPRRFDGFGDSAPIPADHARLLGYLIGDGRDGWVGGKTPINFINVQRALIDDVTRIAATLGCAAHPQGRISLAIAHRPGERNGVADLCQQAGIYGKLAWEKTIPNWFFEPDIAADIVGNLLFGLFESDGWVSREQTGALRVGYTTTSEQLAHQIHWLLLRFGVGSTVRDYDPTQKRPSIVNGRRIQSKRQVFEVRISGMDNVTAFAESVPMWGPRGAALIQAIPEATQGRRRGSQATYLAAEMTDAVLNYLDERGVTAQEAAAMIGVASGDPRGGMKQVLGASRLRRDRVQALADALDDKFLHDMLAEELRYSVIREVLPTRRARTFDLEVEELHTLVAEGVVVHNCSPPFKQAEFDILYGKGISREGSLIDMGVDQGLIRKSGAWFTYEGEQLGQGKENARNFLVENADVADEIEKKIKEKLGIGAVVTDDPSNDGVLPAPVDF

[7] = Trypanosoma cruzi growth suppression in host cells – NIH3T3 host cells, beta-gal luminescence, confirmation (AID 2044); type: functional, cell-based;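 also: intracellular parasites grown in NIH/3T3 mouse fibroblasts as host cells; luminescent beta-galactosidase reporter signal from transgenic T. cruzi replicating inside host cells; inhibitors lower the luminescence signal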
[8] = NIH3T3 cell viability loss – ATP luminescence, mouse fibroblasts, counter-screen, dose response (AID 2010); type: functional, cell-based;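 also: cells exposed to compound for about 90 hours before reading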
[9] = Luminescence Cell-Based Dose Response to Identify Activators of 5'UTR Stem-Loop Driven Prion Protein mRNA Translation in H4-C Neuroglioblastoma Cells. [Related pubchem assays: 1829 (Project Summary), 1814 (Primary HTS)]; type: functional
[10] = Luminescence Cell-Based Dose Response HTS to Identify Activators of Luciferase Translation or Activity in H4 […] Cells. [Related pubchem assays: 1829 (Project Summary), 1814 (Primary HTS)]; type: functional
H4 = experiment: Luminescence Cell-Based Dose Response HTS to Identify Activators of 5'UTR Stem-Loop Driven Prion Protein mRNA Translation in H4 Neuroglioblastoma Cells. [Related pubchem assays: 1829 (Project Summary), 1814 (Primary HTS)]; type: functional; settings: Homo sapiens
[11] = Luminescence Cell-Based Dose Response to Identify Activators of Luciferase Translation or Activity in H4-C Neuroglioblastoma Cells. [Related pubchem assays: 1829 (Project Summary), 1814 (Primary HTS)]; type: functional
[12] = Luminescence Cell-Based Dose Confirmation to Identify Activators of 5'UTR Stem-Loop Driven Alpha-Synuclein mRNA Translation in H4 Neuroglioblastoma Cells. [Related pubchem assays: 1829 (Project Summary), 1814 (Primary HTS)]; type: functional
[13] = target: FAD-linked sulfhydryl oxidase ALR (Homo sapiens, UniProt P55789); experiment: ALR-catalysed DTT oxidation blockers – biochemical, H2O2 detection, luminescence, cherry-pick, dose response (AID 493248)
[14] = viability loss in THP-1 monocytes – THP-1 cells, cytotoxicity control for Vif-APOBEC3G degradation inhibitor project, dose response (AID 1117359); type: functional; settings: THP-1
Beta-galactosidase = Beta-galactosidase (Escherichia coli, UniProt Q8VNN2); experiment: detection-enzyme interference by beta-gal modulators – biochemical, E. coli enzyme, set 3, artefact control for CCR6 antagonist project, dose response (AID 504712); type: functional
Genome polyprotein = Genome polyprotein (dengue virus type 2, UniProt P29990); experiment: flavivirus cap methylation enzyme inhibition – biochemical, confirmation dose response, primary screen (AID 588689); type: functional
Paired box protein Pax-8 = Paired box protein Pax-8 (Homo sapiens, UniProt Q06710); experiment: PAX8 transcriptional activity inhibition in RMG-I – RMG-I cells, luciferase, cherry-pick, dose response (AID 687027); type: functional, cell-based;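 also: luciferase reporter driven by Pax8 target thyroperoxidase promoter measured by SteadyGlo luminescence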
HeLa = experiment: viability loss in HeLa cells – cell-based, ATP luminescence, cherry-pick samples, cytotoxicity control, dose response (AID 687004); type: functional; settings: Homo sapiens

Chain of Cytochrome P450 2D6 (P10635 whole entry): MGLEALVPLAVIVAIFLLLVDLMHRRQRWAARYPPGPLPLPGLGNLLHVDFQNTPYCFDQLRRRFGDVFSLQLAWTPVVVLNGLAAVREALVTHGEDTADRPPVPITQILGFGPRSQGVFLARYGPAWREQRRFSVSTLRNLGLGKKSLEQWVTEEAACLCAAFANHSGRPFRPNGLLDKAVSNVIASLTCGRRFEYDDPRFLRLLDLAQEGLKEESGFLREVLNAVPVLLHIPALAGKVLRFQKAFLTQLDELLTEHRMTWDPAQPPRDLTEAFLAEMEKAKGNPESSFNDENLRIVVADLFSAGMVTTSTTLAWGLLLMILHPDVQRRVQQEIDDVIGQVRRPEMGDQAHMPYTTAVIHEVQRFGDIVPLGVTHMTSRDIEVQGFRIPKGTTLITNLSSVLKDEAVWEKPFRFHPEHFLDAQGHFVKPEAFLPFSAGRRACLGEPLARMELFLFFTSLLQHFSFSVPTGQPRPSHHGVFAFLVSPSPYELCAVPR
Chain of Beta-galactosidase (Q8VNN2 whole entry): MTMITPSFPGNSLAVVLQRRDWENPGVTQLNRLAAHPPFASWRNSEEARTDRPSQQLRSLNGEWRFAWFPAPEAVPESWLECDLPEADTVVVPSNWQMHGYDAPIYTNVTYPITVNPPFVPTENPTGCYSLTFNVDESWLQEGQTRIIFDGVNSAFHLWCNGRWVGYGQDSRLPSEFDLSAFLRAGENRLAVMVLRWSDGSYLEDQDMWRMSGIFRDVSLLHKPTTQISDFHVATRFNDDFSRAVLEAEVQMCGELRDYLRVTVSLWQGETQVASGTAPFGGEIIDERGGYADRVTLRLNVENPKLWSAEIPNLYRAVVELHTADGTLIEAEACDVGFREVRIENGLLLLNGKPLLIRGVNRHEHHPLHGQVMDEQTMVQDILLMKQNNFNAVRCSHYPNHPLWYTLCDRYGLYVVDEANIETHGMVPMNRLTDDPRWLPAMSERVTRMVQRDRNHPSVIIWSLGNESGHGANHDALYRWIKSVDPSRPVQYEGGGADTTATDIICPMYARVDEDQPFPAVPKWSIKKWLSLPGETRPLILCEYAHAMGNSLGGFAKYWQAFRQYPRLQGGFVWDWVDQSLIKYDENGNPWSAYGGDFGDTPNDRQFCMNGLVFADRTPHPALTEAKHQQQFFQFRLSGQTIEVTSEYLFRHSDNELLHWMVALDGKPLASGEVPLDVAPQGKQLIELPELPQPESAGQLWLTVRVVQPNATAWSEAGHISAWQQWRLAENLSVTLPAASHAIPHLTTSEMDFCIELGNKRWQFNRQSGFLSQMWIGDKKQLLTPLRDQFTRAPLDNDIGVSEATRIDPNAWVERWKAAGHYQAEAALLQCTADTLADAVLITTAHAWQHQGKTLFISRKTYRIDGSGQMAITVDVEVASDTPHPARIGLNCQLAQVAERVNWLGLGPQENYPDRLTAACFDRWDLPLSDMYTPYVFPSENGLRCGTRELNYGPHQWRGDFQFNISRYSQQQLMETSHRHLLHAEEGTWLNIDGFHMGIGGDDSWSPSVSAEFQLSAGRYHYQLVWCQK
Chain of Cytochrome P450 2C19 (P33261 whole entry): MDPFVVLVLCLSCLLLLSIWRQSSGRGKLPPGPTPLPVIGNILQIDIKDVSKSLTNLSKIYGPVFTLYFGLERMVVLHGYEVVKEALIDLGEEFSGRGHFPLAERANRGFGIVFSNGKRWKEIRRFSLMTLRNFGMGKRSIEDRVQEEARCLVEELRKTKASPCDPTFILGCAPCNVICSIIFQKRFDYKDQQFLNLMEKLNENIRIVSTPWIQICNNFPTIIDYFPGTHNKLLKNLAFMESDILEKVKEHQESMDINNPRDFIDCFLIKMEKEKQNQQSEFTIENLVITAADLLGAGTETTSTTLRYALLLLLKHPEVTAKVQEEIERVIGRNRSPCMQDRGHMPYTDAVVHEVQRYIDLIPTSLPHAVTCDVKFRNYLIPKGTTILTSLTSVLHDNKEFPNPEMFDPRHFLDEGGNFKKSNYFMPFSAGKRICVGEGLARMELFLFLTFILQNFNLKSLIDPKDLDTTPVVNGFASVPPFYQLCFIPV
Chain of Photoreceptor-specific nuclear receptor (Q9Y5X4 whole entry): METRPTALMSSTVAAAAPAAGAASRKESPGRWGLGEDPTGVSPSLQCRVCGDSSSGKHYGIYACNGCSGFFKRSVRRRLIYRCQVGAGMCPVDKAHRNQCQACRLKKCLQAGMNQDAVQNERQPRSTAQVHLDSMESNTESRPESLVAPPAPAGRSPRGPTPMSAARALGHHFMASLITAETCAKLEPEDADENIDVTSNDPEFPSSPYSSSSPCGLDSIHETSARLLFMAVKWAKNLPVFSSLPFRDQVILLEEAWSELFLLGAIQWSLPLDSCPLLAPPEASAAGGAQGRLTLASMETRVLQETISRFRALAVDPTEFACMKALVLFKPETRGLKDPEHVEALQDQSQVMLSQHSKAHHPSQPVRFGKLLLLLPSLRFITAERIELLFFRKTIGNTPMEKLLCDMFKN
Chain of FAD-linked sulfhydryl oxidase ALR (P55789 whole entry): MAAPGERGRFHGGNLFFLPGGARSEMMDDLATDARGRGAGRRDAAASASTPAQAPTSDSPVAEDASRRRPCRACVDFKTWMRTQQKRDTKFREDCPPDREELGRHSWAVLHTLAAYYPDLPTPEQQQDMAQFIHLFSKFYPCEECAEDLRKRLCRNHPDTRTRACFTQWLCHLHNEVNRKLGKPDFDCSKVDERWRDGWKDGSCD
Chain of Paired box protein Pax-8 (Q06710 whole entry): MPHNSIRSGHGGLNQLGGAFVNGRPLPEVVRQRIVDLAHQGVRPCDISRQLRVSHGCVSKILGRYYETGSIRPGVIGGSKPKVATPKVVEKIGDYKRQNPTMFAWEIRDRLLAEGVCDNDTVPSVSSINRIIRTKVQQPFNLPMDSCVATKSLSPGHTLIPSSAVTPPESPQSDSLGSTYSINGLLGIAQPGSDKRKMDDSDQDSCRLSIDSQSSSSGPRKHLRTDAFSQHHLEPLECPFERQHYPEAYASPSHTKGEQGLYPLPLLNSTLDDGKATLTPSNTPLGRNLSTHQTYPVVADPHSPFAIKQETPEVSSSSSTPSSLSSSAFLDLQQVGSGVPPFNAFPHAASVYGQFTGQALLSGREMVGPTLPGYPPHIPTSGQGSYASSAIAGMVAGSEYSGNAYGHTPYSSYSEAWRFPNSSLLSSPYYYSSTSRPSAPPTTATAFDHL
Chain of Genome polyprotein (P29990 2492-3391 limits assumed): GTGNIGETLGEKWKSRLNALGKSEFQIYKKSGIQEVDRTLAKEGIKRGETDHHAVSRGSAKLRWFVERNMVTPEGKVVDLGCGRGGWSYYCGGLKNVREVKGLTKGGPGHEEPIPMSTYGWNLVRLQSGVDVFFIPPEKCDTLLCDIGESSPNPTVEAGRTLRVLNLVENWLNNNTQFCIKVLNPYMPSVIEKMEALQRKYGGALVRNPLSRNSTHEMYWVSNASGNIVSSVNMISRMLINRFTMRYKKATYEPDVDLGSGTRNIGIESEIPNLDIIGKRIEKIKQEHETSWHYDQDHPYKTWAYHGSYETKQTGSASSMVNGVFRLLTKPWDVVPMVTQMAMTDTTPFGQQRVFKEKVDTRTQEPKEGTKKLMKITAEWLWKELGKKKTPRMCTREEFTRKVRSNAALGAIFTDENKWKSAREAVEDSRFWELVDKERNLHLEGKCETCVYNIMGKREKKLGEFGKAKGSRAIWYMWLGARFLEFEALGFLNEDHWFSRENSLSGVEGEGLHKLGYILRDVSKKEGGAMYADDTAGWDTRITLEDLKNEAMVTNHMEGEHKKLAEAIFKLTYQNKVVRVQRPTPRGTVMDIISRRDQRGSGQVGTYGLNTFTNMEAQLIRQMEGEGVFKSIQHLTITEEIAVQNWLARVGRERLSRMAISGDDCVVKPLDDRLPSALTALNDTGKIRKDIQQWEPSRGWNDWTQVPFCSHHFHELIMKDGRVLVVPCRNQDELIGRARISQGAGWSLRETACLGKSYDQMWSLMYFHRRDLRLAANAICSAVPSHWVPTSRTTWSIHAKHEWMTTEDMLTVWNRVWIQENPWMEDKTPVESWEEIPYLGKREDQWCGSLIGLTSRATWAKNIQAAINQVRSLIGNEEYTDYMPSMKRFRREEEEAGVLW
Chain of Cytochrome P450 2C9 (P11712 whole entry): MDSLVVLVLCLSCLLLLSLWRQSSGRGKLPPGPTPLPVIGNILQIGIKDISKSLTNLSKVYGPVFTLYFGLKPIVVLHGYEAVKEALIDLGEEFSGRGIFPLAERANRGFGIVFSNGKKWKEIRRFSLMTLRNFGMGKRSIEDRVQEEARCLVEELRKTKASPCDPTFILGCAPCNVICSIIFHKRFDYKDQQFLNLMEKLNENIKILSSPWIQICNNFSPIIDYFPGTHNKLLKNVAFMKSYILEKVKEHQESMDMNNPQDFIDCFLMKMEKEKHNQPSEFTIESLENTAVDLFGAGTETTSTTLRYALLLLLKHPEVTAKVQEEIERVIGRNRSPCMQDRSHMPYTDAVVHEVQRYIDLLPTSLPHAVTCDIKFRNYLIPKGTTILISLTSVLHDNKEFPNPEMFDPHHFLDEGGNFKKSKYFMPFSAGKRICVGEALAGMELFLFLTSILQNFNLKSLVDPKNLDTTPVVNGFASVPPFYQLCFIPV

For `CCOc1cnn(Cc2ccccc2)c(=O)c1SCc1ccccc1`, the IC50 [1] was > 39.8 µM (not active) and the IC50 [2] was 15.5 µM (not active).
In the case of `COC(=O)CNC(=O)CN1C(=O)N(c2ccccc2)C(N(O)C(=O)Nc2ccccc2)C1(C)C` (stereo not drawn), the AC50 (Cytochrome P450 2C19; read-out: AC50) is reported as 3.55 µM (inconclusive), the AC50 (Cytochrome P450 2C9) is reported as 10 µM (inconclusive) and the AC50 (Cytochrome P450 2D6) is reported as “inconclusive”.
For `O=C(CCl)N(c1ccccc1)c1c[nH]c2ccccc12`, the EC50 [3] was 3.78 µM (active), the EC50 [4] was 3.3 µM (active) and the AC50 [5] was 5.09 µM (active). For the same compound, the AC50 [6] was 8.51 µM (active) and the EC50 (Protein RecA) was 0.361 µM (active).
In the case of `COc1ccc2oc(C(=O)Nc3ccc(S(=O)(=O)N(C)C4CCN(C)CC4)cc3)c(C)c2c1`, the EC50 [7] is reported as 0.17 µM (active), the EC50 [8] is reported as 9.46 µM (active) and the AC50 [5] is reported as 13 µM (active).
In the case of `CSc1nc(-c2ccc(Cl)cc2)c[nH]1`, the EC50 [9] is reported as 2.01 µM (active), the EC50 [10] is reported as 0.284 µM (active) and the EC50 (H4) is reported as < 0.1 µM (active). The EC50 [11] was 0.276 µM (active), the EC50 [12] was 0.386 µM (active) and the AC50 [13] was 2.02 µM (active).
For `COc1cc(OC)c2ccc(=O)oc2c1C(CCN1CCCC(C)C1)c1ccc2c(c1)OCO2` (stereo not drawn), the CC50 [14] was > 40 µM (active).
With `CN(C)c1c([N+](=O)[O-])cc(N2C(=O)C=CC2=O)cc1[N+](=O)[O-]` the IC50 (Beta-galactosidase) was > 66.6 µM (inactive) and the IC50 (Genome polyprotein) was 11.1 µM (active).
In the case of `COc1ccc(C(=O)C2=C(O)C(=O)N(CCCC(=O)O)C2c2ccc(OC)cc2)cc1` (stereo not drawn), the AC50 (Cytochrome P450 2C19) is reported as “inconclusive” and the AC50 (Cytochrome P450 2D6) is reported as “inconclusive”.
With `Cc1ccc(NC(=O)c2ccc([N+](=O)[O-])s2)cc1S(=O)(=O)N1CCOCC1` the AC50 [5] was 3.78 µM (active) and the AC50 (Paired box protein Pax-8) was 3.94 µM (active).
For `Cc1cccc(C)c1NC(=O)C(CCc1ccccc1)N1CCC(c2ccccc2)CC1` (stereo not drawn), the AC50 (HeLa) was > 52 µM (inactive).
With `Cc1nn(-c2ccccc2)c(O)c1/C=N/N1C(=O)c2ccc3c4c(ccc(c24)C1=O)CC3` the IC50 (Beta-galactosidase) was > 66.6 µM (inactive).
In the case of `CC/N=c1\scc(C)n1/N=C/c1ccsc1`, the EC50 [9] is reported as 0.66 µM (active), the EC50 [10] is reported as 16.6 µM (active) and the EC50 (H4) is reported as 11.1 µM (active). The EC50 [11] was 0.582 µM (active) and the EC50 [12] was 1.08 µM (active).
